In US20240189315A1, “Cyclic Pyridine Derivatives as cGAS Inhibitors” (Boehringer Ingelheim International GmbH, priority 2022, published 2024):
Where two headings read alike, the source gives them in different places.

How the values were obtained:
Human cGAS enzyme = Human cGAS enzyme (Homo sapiens (Human), UniProt Q8N884); assay: Human cGAS enzyme assay (hcGAS IC50, in vitro), cGAMP formation by RapidFire MS; type: biochemical;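 further: recombinant human cGAS activated by 45 bp dsDNA with 30 µM each ATP and GTP, 90 min, cGAMP vs cyclic-di-GMP standard by MS, 8-point titration from 10 µM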
Human cGAS enzyme, sequence (Q8N884 whole entry): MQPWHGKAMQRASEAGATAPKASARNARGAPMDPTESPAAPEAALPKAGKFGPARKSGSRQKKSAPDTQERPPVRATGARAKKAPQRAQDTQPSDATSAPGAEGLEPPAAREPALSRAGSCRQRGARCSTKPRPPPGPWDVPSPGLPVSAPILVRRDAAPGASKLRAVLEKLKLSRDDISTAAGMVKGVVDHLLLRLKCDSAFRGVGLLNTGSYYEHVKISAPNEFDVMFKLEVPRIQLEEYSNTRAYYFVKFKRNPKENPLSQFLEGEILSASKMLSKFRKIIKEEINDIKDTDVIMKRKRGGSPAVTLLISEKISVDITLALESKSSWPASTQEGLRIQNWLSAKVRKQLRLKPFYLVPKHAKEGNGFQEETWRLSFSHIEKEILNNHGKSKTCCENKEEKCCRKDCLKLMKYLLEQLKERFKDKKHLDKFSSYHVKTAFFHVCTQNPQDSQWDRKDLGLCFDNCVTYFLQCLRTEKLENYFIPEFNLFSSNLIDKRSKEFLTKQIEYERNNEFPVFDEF

[1] = target: cellular cGAS activity in baculovirus-stimulated THP1-Dual cells (Homo sapiens (Human), UniProt Q8N884); assay: Human cGAS cell assay (THP1(vir) IC50): IFN induction in virus-stimulated THP1-Dual cells, IRF Lucia luciferase reporter; type: cell-based;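 further: Eight-point dilution series starting at 10 µM, 1% DMSO, 18 h at 37 °C, luminescence read-out, virus-free wells as 0% and DMSO-treated virus-stimulated wells as 100%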
cellular cGAS activity in baculovirus-stimulated THP1-Dual cells, sequence (Q8N884 whole entry): as above

[2] = target: cellular cGAS activity in dsDNA-stimulated human whole blood (Homo sapiens (Human), UniProt Q8N884); assay: Human whole blood assay (hWB IC50): IFNα2a production after dsDNA transfection; type: cell-based;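 further: IFNα-2a in plasma measured by MSD electrochemiluminescence immunoassay after 22 h at 37 °C, 8-point dilution series from 10 µM top concentration, DMSO wells as controls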
cellular cGAS activity in dsDNA-stimulated human whole blood, sequence (Q8N884 whole entry): as above

[3] = tested on: pathway directly downstream of cGAS in cGAMP-stimulated THP1-Dual cells; assay: cGAMP stimulated counter cell assay (THP1(cGAMP) IC50): IFN induction in cGAMP-stimulated THP1-Dual cells; type: cell-based, human; conditions: for IC50: Homo sapiens, THP1-Dual; for Ratio THP(cGAMP) IC50/ THP(vir) IC50: selectivity for cGAS inhibition
Source text: 6.2 Method: Human cGAS Cell Assay and cGAMP Stimulated Counter Cell Assay (THP1(vir) IC50 and THP1(cGAMP) IC50)
THP1-Dual™ cells (InvivoGen #thpd-nfis) expressing IRF dependent Lucia luciferase reporter were used as basis for both assays. For the detection of cellular cGAS activity cells were stimulated by a baculovirus (pFastbac-1, Invitrogen, no coding insert) infection that delivers the cGAS enzyme stimulating double-stranded DNA (measurement of THP1(vir) IC50).
For the counter assay, cells were stimulated by cGAMP (SigmaAldrich #SML1232) to activate the identical pathway independent and directly downstream of cGAS (measurement of THP1(cGAMP) IC50). Pathway activity was monitored by measuring the Lucia luciferase activity induced by either DNA stimulated cGAS enzyme activity (measurement of THP1(vir) IC50) or by cGAMP directly (measurement of THP1(cGAMP) IC50, counter assay).
Compounds were delivered in 10 mM DMSO solution, serially diluted and transferred to the 384 well assay plate (Greiner #781201) using an Echo acoustic dispenser. Typically, 8 concentrations were used with the highest concentration at 10 μM in the final assay volume followed by ˜1:5 dilution steps. DMSO concentration was set to 1% in the final assay volume. The 384 well assay plate contained 21 test compounds (column 1-22), and DMSO in column 23 and 24.
Cells, cultivated according to manufacturer conditions, were harvested by centrifugation at 300 g/10 min and were then resuspended and diluted to 1.66E5 cells/ml in fresh cell culture medium (RPMI 1640 (Gibco #A10491-01), 10% FCS (Gibco #10500), 1× GlutaMax (Gibco #35050-061), 1× Pen/Strep solution (Gibco #15140-122), 100 μg/ml Normocin (InvivoGen #ant-nr), 100 μg/ml Zeocin (InvivoGen #ant-zn), 10 μg/ml Blasticidin S (Life Technologies #A11139-03)). The baculovirus solution was then added 1:200 (have varied according to virus batch) to the cells (measurement of THP1(vir) IC50). […] 30 μL of the cell/virus-mix were added to each well of the compound plate from column 1-23 via MultiDrop Combi dispenser (5000 cells/well). In column 24, 30 μl/5000 cells/well without virus were added as a low control.
The plates were then incubated for 18 h at 37° C. in a humidified incubator.
Following that, 15 μL of QuantiLuc detection reagent (InvivoGen #rep-qlcg5) were added to each well using a MultiDrop Combi. Measurement was done immediately after the addition using an EnVision reader (US-luminescence read-mode).
Data Evaluation and Calculation:
For data evaluation and calculation, the measurement of the low control was set as 0% control and the measurement of the high control was set as 100% control. The IC50 values were calculated using the standard 4 parameter logistic regression formula. Calculation: [y=(a−d)/(1+(x/c)^b)+d], a=low value, d=high value; x=conc M; c=IC50 M; b=slope

[4] = Table 1, virus-stimulated THP1 cells, read-out: THP(vir) IC50
[5] = Table 1, dsDNA-stimulated human whole blood
[6] = Table 1, cGAMP-stimulated THP1 cells, read-out: THP(cGAMP) IC50

Compound	IC50 (Human cGAS enzyme; Table 1) [nM]	IC50 [1, 4] [nM]	IC50 [2, 5] [nM]	IC50 (Human cGAS enzyme; Table 2, compounds from WO 2020/142729 re-tested in the applicant's assay) [nM]	IC50 ([1]; Table 2, compounds from WO 2020/142729, read-out: THP1(vir) IC50) [nM]	IC50 ([2]; Table 2, compounds from WO 2020/142729) [nM]	IC50 [3, 6] [nM]	Ratio THP(cGAMP) IC50/ THP(vir) IC50 ([3]; Table 1)	IC50 ([3]; Table 2, compounds from WO 2020/142729, read-out: THP1(cGAMP) IC50) [nM]
C[C@H]1CN2CC[C@]1(F)c1cc(Cl)cnc1O[C@H]1C[C@@H](C(=O)O)N(C1)c1nc(nc3c1oc1ccccc13)C(F)(F)CCCCCC2=O [Example 05, (1R,9S,11S,34S)-4-chloro-1,25,25-trifluoro-34-methyl-31-oxo-8,15-dioxa-6,12,23,32,37-pentaazaheptacyclo[30.2.2.1^9,12.1^13,24.0^2,7.0^14,22.0^16,21]octatriaconta-2,4,6,13,16,18,20,22,24(37)-nonaene-11-carboxylicacid]	12	59	114				9400	158	
C[C@H]1CN2CC[C@]1(F)c1cc(Cl)cnc1O[C@H]1C[C@@H](C(=O)O)N(C1)c1nc(nc3c1oc1ccccc13)CCCOCCC2=O [Example 23, (1R,9S,11S,34S)-4-Chloro-1-fluoro-34-methyl-31-oxo-8,15,28-trioxa-6,12,23,32,37-pentaazabestacyclo[30.2.2.1^9,12.1^13,24.0^2,7.0^14,22.0^16,21]octatriaconta-2,4,6,13(37),14(22),16(21),17,19,23-nonaene-11-carboxylic acid]	12	69	114				10000	148	
COc1cc(-c2cnc3c(c2)[C@@]2(F)CCN(C[C@@H]2C)C(=O)CCCOCCc2nc(c4oc5ccccc5c4n2)N2C[C@H](C[C@H]2C(=O)O)O3)c(F)cn1 [Example 20.03]	18	18	38				5900	321	
C[C@H]1CN2CC[C@]1(F)c1cc(-c3cnn(C)c3)cnc1O[C@H]1C[C@@H](C(=O)O)N(C1)c1nc(nc3c1oc1ccccc13)CCOCCCC2=O [Example 20.02]	7	8	10				7900	946	
O=C(O)[C@@H]1C[C@H]2CN1c1nc(nc3c1oc1ccccc13)C(F)(F)CCCCCC(=O)N1CCC(F)(CC1)c1cc(Cl)cnc1O2 [Example 07]	100	320	750				12000	37	
COc1ncccc1-c1cnc2c(c1)[C@@]1(F)CCN(C[C@@H]1C)C(=O)CCCOCCc1nc(c3oc4ccccc4c3n1)N1C[C@H](C[C@H]1C(=O)O)O2 [Example 20.01, (1R,9S,11S,34S)-1-fluoro-4-(2-methoxypyridin-3-yl)-34-methyl-31-oxo-8,15,27-trioxa-6,12,23,32,37-pentaazaheptacyclo[30.2.2.1^9,12.1^13,24.0^2,7.0^14,22.0^16,21]octatriaconta-2,4,6,13(37),14(22),16(21),17,19,23-nonaene-11-carboxylic acid]	18	19	45				8100	419	
C[C@H]1CN2CC[C@]1(F)c1cc(Cl)cnc1O[C@H]1C[C@@H](C(=O)O)N(C1)c1nc(nc3c1oc1ccccc13)C(F)(F)COCCCC2=O [Example 21, (1R,9S,11S,34S)-4-chloro-1,25,25-trifluoro-34-methyl-31-oxo-8,15,27-trioxa-6,12,23,32,37-penta-azaheptacyclo[30.2.2.1^9,12.1^13,24.0^2,7.0^14,22.0^16,21]octatriaconta-2,4,6,13(37),14(22),16(21),17,19,23-nonaene-11-carboxylic acid]	5	3	7				10000	3281	
C[C@H]1CN2CC[C@]1(F)c1cc(Cl)cnc1O[C@H]1C[C@@H](C(=O)O)N(C1)c1nc(nc3c1oc1ccccc13)COCCCC(F)(F)C2=O [Example 10, (1R,9S,11S,34S)-4-chloro-1,30,30-trifluoro-34-methyl-31-oxo-8,15,26-trioxa-6,12,23,32,37-pentaazaheptacyclo[30.2.2.1^9,12.1^13,24.0^2,7.0^14,22.0^16,21]octatriaconta-2,4,6,13,16,18,20,22,24(37)-nonaene-11-carboxylic acid]	68	190	339				12000	61	
C[C@H]1CN2CC[C@]1(F)c1cc(Br)cnc1O[C@H]1C[C@@H](C(=O)O)N(C1)c1nc(nc3c1oc1ccccc13)CCOCCCC2=O [Example 17]	13	140	96				5600	40	
C[C@H]1CN2CC[C@]1(F)c1cc(Cl)cnc1O[C@H]1C[C@@H](C(=O)O)N(C1)c1nc(nc3c1oc1ccccc13)COCCCOC2=O [Example 13, (1R,9S,11S,34S)-4-chloro-1-fluoro-34-methyl-31-oxo-8,15,26,30-tetraoxa-6,12,23,32,37-pentaaabestacyclo[30.2.2.1^9,12.1^13,24.0^14,22.0^16,21]octatriaconta-2(7),3,5,13(37),14(22),16(21),17,19,23-nonaene-11-carboxylic acid]	22	42	149				16000	256	
C[C@H]1COCCCc2nc(c3oc4ccccc4c3n2)N2C[C@H](C[C@H]2C(=O)O)Oc2ncc(Br)cc2[C@@]2(F)CCN(C[C@@H]2C)C1=O [Example 25]	7	110	116				1700	16	

The next lines start with results.

IC50 (Human cGAS enzyme; Table 1) [nM]	IC50 [1, 4] [nM]	IC50 [2, 5] [nM]	IC50 (Human cGAS enzyme; Table 2, compounds from WO 2020/142729 re-tested in the applicant's assay) [nM]	IC50 ([1]; Table 2, compounds from WO 2020/142729, read-out: THP1(vir) IC50) [nM]	IC50 ([2]; Table 2, compounds from WO 2020/142729) [nM]	Compound	IC50 [3, 6] [nM]	Ratio THP(cGAMP) IC50/ THP(vir) IC50 ([3]; Table 1)	IC50 ([3]; Table 2, compounds from WO 2020/142729, read-out: THP1(cGAMP) IC50) [nM]
7	47	15				C[C@H]1CN2CC[C@]1(F)c1cc(Br)cnc1O[C@H]1C[C@@H](C(=O)O)N(C1)c1nc(nc3c1oc1ccccc13)CCCCOCC2=O [Example 28]	1900	39	
3	3	8				C[C@H]1CN2CC[C@]1(F)c1cc(Cl)cnc1O[C@H]1C[C@@H](C(=O)O)N(C1)c1nc(nc3c1oc1ccccc13)CCOCCC2=O [Example 38, (1R,9S,11S,33S)-4-chloro-1-fluoro-33-methyl-30-oxo-8,15,27-trioxa-6,12,23,31,36-pentaaza-heptacyclo[29.2.2.1^9,12.1^13,24.0^2,7.0^14,22.0^16,21]heptatriaconta-2,4,6,13(36),14(22),16(21),17,19,23-nonaene-11-carboxylic acid]	> 10000	2964	
7	130	79				C[C@H]1CN2CC[C@]1(F)c1cc(Cl)cnc1O[C@H]1C[C@@H](C(=O)O)N(C1)c1nc(nc3c1oc1ccccc13)CCCCCC2=O [Example 36]	> 10000	80	
5	3	16				C[C@H]1CN2CC[C@]1(F)c1cc(Cl)cnc1O[C@H]1C[C@@H](C(=O)O)N(C1)c1nc(nc3c1oc1cc(Cl)ccc13)C(F)(F)CCCOCC2=O [Example 33]	6400	2085	
			630	> 32000	> 9990	Cc1nc(N2C[C@@H](CC(=O)Nc3ccncc3)C[C@H]2C(=O)O)c2oc3ccccc3c2n1 [Example 28]			> 17000
5	83	33				C[C@H]1CN2CC[C@]1(F)c1cc(Cl)cnc1O[C@H]1C[C@@H](C(=O)O)N(C1)c1nc(nc3c1oc1ccccc13)CCCCOCC2=O [Example 27]	1700	20	
